Inconclusive results and toxic doses are left out. Cut-off read from the data, not from the text of the source: active = T/C of 150% or more; inactive = T/C below 125%.
Tested on: L1210 leukemia ip in BDF1 mice, survival T/C
Test: NCI In Vivo Anticancer Drug Screen. Data for tumor model L1210 Leukemia (intraperitoneal) in B6D2F1 (BDF1) mice
Conditions: endpoint: mean survival time, higher = longer survival
Procedure, shortened: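 Mice bearing the transplanted tumor received compound or vehicle. Survival of the treated group was divided by that of the vehicle-treated control group to give the ratio.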

[1] = dose: 100.0 mg/kg/injection, schedule: Q01DX001 (ip), vehicle: saline
[2] = dose: 200.0 mg/kg/injection, schedule: Q01DX001 (ip), vehicle: saline
[3] = dose: 400.0 mg/kg/injection, schedule: Q01DX001 (ip), vehicle: saline
[4] = dose: 100.0 mg/kg/injection, schedule: Q04DX003 (ip), vehicle: saline
[5] = dose: 200.0 mg/kg/injection, schedule: Q04DX003 (ip), vehicle: saline
[6] = dose: 400.0 mg/kg/injection, schedule: Q04DX003 (ip), vehicle: saline
[7] = dose: 100.0 mg/kg/injection, schedule: Q04DX003 (ip), vehicle: Klucel (hydroxypropylcellulose) (HPC)
[8] = dose: 200.0 mg/kg/injection, schedule: Q04DX003 (ip), vehicle: Klucel (hydroxypropylcellulose) (HPC)
[9] = dose: 400.0 mg/kg/injection, schedule: Q04DX003 (ip), vehicle: Klucel (hydroxypropylcellulose) (HPC)
[10] = dose: 100.0 mg/kg/injection, schedule: Q01DX009 (ip), vehicle: saline with Tween-80
[11] = dose: 6.25 mg/kg/injection, schedule: Q01DX009 (ip), vehicle: saline with Tween-80
[12] = dose: 50.0 mg/kg/injection, schedule: Q01DX001 (ip), vehicle: saline
[13] = dose: 100.0 mg/kg/injection, schedule: Q01DX001 (ip), vehicle: Klucel (hydroxypropylcellulose) (HPC)
[14] = dose: 200.0 mg/kg/injection, schedule: Q01DX001 (ip), vehicle: Klucel (hydroxypropylcellulose) (HPC)
[15] = dose: 100.0 mg/kg/injection, schedule: Q04DX003 (ip), vehicle: saline with Tween-80
[16] = dose: 200.0 mg/kg/injection, schedule: Q04DX003 (ip), vehicle: saline with Tween-80
[17] = dose: 400.0 mg/kg/injection, schedule: Q04DX003 (ip), vehicle: saline with Tween-80

Measured: T/C

CCCOC(=O)c1ccc(O)cc1
inactive: dose: 100.0 mg/kg/injection, schedule: Q01DX009 (ip), vehicle: Klucel (hydroxypropylcellulose) (HPC) 87 % of control | dose: 200.0 mg/kg/injection, schedule: Q01DX009 (ip), vehicle: Klucel (hydroxypropylcellulose) (HPC) 94 % of control | dose: 400.0 mg/kg/injection, schedule: Q01DX009 (ip), vehicle: Klucel (hydroxypropylcellulose) (HPC) 102 % of control

COC(=O)c1cc(=O)nc2n1C1OC(CO)C(O)C1O2 (stereo unspecified)
inactive: [1] 95 % of control | [2] 101 % of control | [3] 93 % of control

NC(=O)SCC(=O)NNc1ccccc1
inactive: dose: 75.0 mg/kg/injection, schedule: Q01DX001 (ip), vehicle: other 90 % of control | dose: 150.0 mg/kg/injection, schedule: Q01DX001 (ip), vehicle: other 98 % of control | dose: 300.0 mg/kg/injection, schedule: Q01DX001 (ip), vehicle: other 100 % of control

C#CCC(C)OS(=O)(=O)c1ccc(C)cc1 (stereo unspecified)
inactive: [1] 98 % of control | [4] 93 % of control | [2] 102 % of control | [5] 93 % of control | [3] 98 % of control | [6] 91 % of control

NC(=O)/C=C/C(=O)O (tested in a mixture with another compound)
inactive: dose: 31.25 mg/kg/injection, schedule: Q#A X Z (ip), vehicle: saline 118 % of control | dose: 62.5 mg/kg/injection, schedule: Q#A X Z (ip), vehicle: saline 119 % of control | dose: 125.0 mg/kg/injection, schedule: Q#A X Z (ip), vehicle: saline 100 % of control | dose: 125.0 mg/kg/injection, schedule: Q#A X Z (oral), vehicle: saline 102 % of control | dose: 250.0 mg/kg/injection, schedule: Q#A X Z (oral), vehicle: saline 100 % of control | dose: 500.0 mg/kg/injection, schedule: Q#A X Z (oral), vehicle: saline 102 % of control | dose: 1000.0 mg/kg/injection, schedule: Q#A X Z (oral), vehicle: saline 102 % of control

CCCCCCCCC1SC1CCCCCCCC(=O)NCCCOCCOCCOCC (stereo unspecified)
inactive: [7] 96 % of control | [8] 100 % of control | [9] 96 % of control

COc1cc(N)c2ncccc2c1Cl
inactive: [1] 104 % of control | [2] 104 % of control | [3] 101 % of control

CS(=O)CC(=O)c1ccc(C(=O)O)cc1 (stereo unspecified)
inactive: dose: 100.0 mg/kg/injection, schedule: Q04DX003 (ip), vehicle: other 107 % of control | dose: 200.0 mg/kg/injection, schedule: Q04DX003 (ip), vehicle: other 98 % of control | dose: 400.0 mg/kg/injection, schedule: Q04DX003 (ip), vehicle: other 101 % of control

CN(C)C(=O)c1ccc(O)cc1
inactive: [7] 104 % of control | [8] 92 % of control | [9] 97 % of control

Nc1nc2nc3c(nc2c(=O)[nH]1)CN(c1ccc(C(=O)NC(CCC(=O)O)C(=O)O)cc1)C3=O (stereo unspecified)
inactive: [10] 93 % of control | dose: 200.0 mg/kg/injection, schedule: Q01DX009 (ip), vehicle: saline with Tween-80 95 % of control

CC[P+]1(c2ccccc2)CCCc2ccc3ccccc3c21 (stereo unspecified)
inactive: [11] 117 % of control

C=C1C(=O)N(C)C(C(=O)OC)CC1C(CC)C(=O)OC (stereo unspecified)
inactive: dose: 25.0 mg/kg/injection, schedule: Q01DX001 (ip), vehicle: saline 104 % of control | [12] 114 % of control | [1] 95 % of control | [2] 108 % of control

O=c1cc(CCl)occ1O
inactive: dose: 50.0 mg/kg/injection, schedule: Q04DX003 (ip), vehicle: Klucel (hydroxypropylcellulose) (HPC) 95 % of control | [7] 98 % of control | [8] 97 % of control

Oc1ccccc1C1CCCCC1
inactive: dose: 12.5 mg/kg/injection, schedule: Q01DX009 (ip), vehicle: gum acacia 102 % of control | dose: 25.0 mg/kg/injection, schedule: Q01DX009 (ip), vehicle: gum acacia 100 % of control | dose: 50.0 mg/kg/injection, schedule: Q01DX009 (ip), vehicle: gum acacia 98 % of control

C=C(CC)C(=O)OCC
inactive: [4] 105 % of control | [5] 94 % of control | [6] 96 % of control

C[n+]1ccccc1/C=C/c1csc2ccccc12
inactive: dose: 5.0 mg/kg/injection, schedule: Q01DX001 (ip), vehicle: carboxymethylcellulose (CMC) 100 % of control | dose: 10.0 mg/kg/injection, schedule: Q01DX001 (ip), vehicle: carboxymethylcellulose (CMC) 102 % of control | dose: 20.0 mg/kg/injection, schedule: Q01DX001 (ip), vehicle: carboxymethylcellulose (CMC) 100 % of control | dose: 40.0 mg/kg/injection, schedule: Q01DX001 (ip), vehicle: carboxymethylcellulose (CMC) 100 % of control | dose: 80.0 mg/kg/injection, schedule: Q01DX001 (ip), vehicle: carboxymethylcellulose (CMC) 107 % of control

[C-]#[N+]C(C)(CC)c1ccccc1 (stereo unspecified)
inactive: [11] 93 % of control | dose: 6.25 mg/kg/injection, schedule: Q04DX003 (ip), vehicle: acetone 96 % of control | dose: 12.5 mg/kg/injection, schedule: Q01DX001 (ip), vehicle: acetone 91 % of control | dose: 12.5 mg/kg/injection, schedule: Q01DX009 (ip), vehicle: saline with Tween-80 95 % of control | dose: 12.5 mg/kg/injection, schedule: Q04DX003 (ip), vehicle: acetone 108 % of control | dose: 25.0 mg/kg/injection, schedule: Q01DX001 (ip), vehicle: acetone 96 % of control | dose: 25.0 mg/kg/injection, schedule: Q01DX009 (ip), vehicle: saline with Tween-80 95 % of control | dose: 25.0 mg/kg/injection, schedule: Q04DX003 (ip), vehicle: acetone 100 % of control

c1cc(-c2ncc[nH]2)ccn1
inactive: dose: 100.0 mg/kg/injection, schedule: Q01DX001 (ip), vehicle: saline with Tween-80 100 % of control

O=[N+]([O-])c1cccc(OCCCCOc2ccc(S(=O)(=O)F)cc2)c1
inactive: dose: 50.0 mg/kg/injection, schedule: Q01DX001 (ip), vehicle: Klucel (hydroxypropylcellulose) (HPC) 92 % of control | [13] 94 % of control | [14] 90 % of control

CC1(C)CC(C(=O)c2ccccc2)C(=O)c2ccccc21 (stereo unspecified)
inactive: [13] 105 % of control | [14] 97 % of control | dose: 400.0 mg/kg/injection, schedule: Q01DX001 (ip), vehicle: Klucel (hydroxypropylcellulose) (HPC) 86 % of control

O=C(CCCC(=O)N/N=C/c1ccccc1Cl)N/N=C\c1ccccc1Cl
inactive: [12] 103 % of control | [1] 100 % of control | [2] 110 % of control | [3] 110 % of control

COc1ccc2c(c1)CCC1C2=CC(=O)/C1=C\[O-].COc1ccc2c(c1)CCC1C2=CC(=O)/C1=C\[O-].[Cu+2] (stereo unspecified)
inactive: dose: 50.0 mg/kg/injection, schedule: Q01DX009 (ip), vehicle: saline with Tween-80 97 % of control | [10] 104 % of control | [4] 92 % of control | [5] 94 % of control

O=S(=O)(NC(=S)c1ccccc1)c1ccccc1
inactive: dose: 50.0 mg/kg/injection, schedule: Q01DX009 (ip), vehicle: saline 108 % of control | dose: 100.0 mg/kg/injection, schedule: Q01DX009 (ip), vehicle: saline 97 % of control

O=C1/C(=C\c2ccc(OCc3ccccc3)cc2)N2CCC1CC2
inactive: [15] 97 % of control | [16] 95 % of control | [17] 87 % of control

Cc1ccc(S(=O)(=O)N(C)Cc2ccccc2)cc1
inactive: [15] 95 % of control | [16] 101 % of control | [17] 101 % of control
